Results from patent US20130252843A1, “METHOD OF MAKING AND USING FLUORESCENT-TAGGED NANOPARTICLES AND MICROARRAYS” (THE STATE OF OREGON ACTING BY AND THROUGH THE STATE BOARD …, priority 2010, published 2013).
Where “and” joins values, the source holds several entries; their conditions need not be identical. Equal values may be shown once. Read-outs that look alike come from different tables or passages of the source.

Columns and labels:
[1] = target: BS-I, Bandeiraea simplicifolia lectin; details: cited from earlier work
PNA, Peanut Agglutinin = target: T1, PNA, Peanut Agglutinin (Arachis hypogaea, UniProt P02872); details: cited from earlier work
T1 construct: purchased Sigma-Aldrich

[2] = target: DBA, Dolichos Biflorus Agglutinin; details: cited from earlier work
[3] = target: RCA, Ricinus Communis Agglutinin I; details: cited from earlier work
[4] = UV irradiation photostability; type: physicochemical; details: 450-W medium-pressure Hg lamp, 10 minutes; of the original value
Procedure: To confirm that the entrapped FITC would withstand the UV irradiation conditions used for a subsequent photocoupling reaction, a solution containing FITC-doped SNPs was irradiated with a 450-W medium-pressure Hg lamp for 10 minutes. […] See, FIG. 6. On the other hand, when the […] was irradiated under the same conditions, the fluorescent intensity was reduced to about 50% of the original value. See, FIG. 7.

[5] = target: blindly prepared lectins (U1-U7) (Arachis hypogaea, UniProt P02872); type: binding; parameters: unit not given here; details: unknown protein u5 (predicted class PNA)
Procedure: (§1) The unspecific binding sites of Sugar coupled Au-PFPA was inhibited by the addition of BSA (3% BSA, 0.2% Tween in PBS buffer pH 7). The 1,500 μL of sugar-coupled Au-PFPA was centrifuged at 9,000 rpm for 8 minutes and was redissolved in a PBS buffer with 3% BSA (0.2% Tween). The volume was made up to 900 μL. The resultant solution was incubated at room temperature with gentle shaking for 1 hour. The BSA blocked Au-PFPA-sugar nanoparticle was centrifuged at 10,000 rpm for 6 minutes and the excess BSA was removed. To a volume of 1,500 μL solution 10 mg/mL lectin (Con A—Concanavalin A, Canavalia ensiformis jack bean protein, SBA—soybean agglutinin, Glycine max and PNA—Peanut Agglutinin, Arachis hypogaea all purchased from Sigma Aldrich) was introduced the resultant solution was incubated at room temperature while gently shaking.
(§2) To test the training matrix and its strength to identify individual lectins, seven blindly prepared lectins (U1-U7) were used as test samples. The procedure for each test sample is the same as that used for the known samples used in the training matrix. The final SPR shift (Table 14) was used in the training matrix (Table 10) for prediction.

[6] = target: blindly prepared lectins (U1-U7) (Canavalia ensiformis, UniProt P02866); type: binding; parameters: unit not given here
Procedure: as §1, §2

[7] = target: blindly prepared lectins (U1-U7) (Glycine max, UniProt P05046); type: binding; parameters: unit not given here
Procedure: as §1, §2

PNA [8] = target: T2, PNA (Arachis hypogaea, UniProt P02872); assay: Protein bio assay, SPR shift of sugar coupled Au-PFPA nanoparticles with lectin; type: binding; parameters: unit: nm; details: replicates
T2 construct: purchased Sigma-Aldrich
T2 sequence (P02872 24-273): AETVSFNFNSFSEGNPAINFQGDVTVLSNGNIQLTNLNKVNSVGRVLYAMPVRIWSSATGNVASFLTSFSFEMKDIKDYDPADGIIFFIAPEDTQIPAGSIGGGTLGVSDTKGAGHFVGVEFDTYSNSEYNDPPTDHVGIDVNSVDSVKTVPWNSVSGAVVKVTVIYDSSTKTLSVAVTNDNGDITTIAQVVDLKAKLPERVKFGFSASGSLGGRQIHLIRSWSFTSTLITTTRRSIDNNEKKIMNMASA
Excerpt: (§3) In other particular embodiments, the interactions between one or more targets and one or more PHPA-derived nanoparticle probes can be measured using absorbance spectroscopy. Particular embodiments concern using surface plasmon resonance. In these embodiments, both the λmax produced before the PHPA-derived nanoparticle probe interacts with the target and the λmax produced after the PHPA-derived nanoparticle probe interacts with the target are detected. The change in λmax provides a numerical number that can be used in further statistical analysis.
as §1
(§4) A training matrix was created using three lectins (Con A, SBA and PNA) and four types of sugar-bound Au-PFPA nanoparticles. Each assay was repeated three times, providing a 3×4×3 training matrix (Table 10). The factor scores (Zi from equation (1) or Fi) calculated for the training matrix from XLSTAT® were F1=98.10% and F2=1.90%.
(§5) A study was also done to identify different lectins using specific binding interaction between lectins and sugars (Wang, X.; Ramstrom, O.; Yan, M. J. Mat. Chem. 2009, 19, 8944-8949). The lectins used in the study were Con A, SBA, PNA and GSII. The sugars used were D-Mannose, D-Glucose, D-Galactose, α-1,4-mannobiose, α-1,3-galactobiose and N-acetyl-D-glucosamine. These sugars are known to have specific binding to lectins (Jurs, P. Science 1986, 232, 1219-1224). The training matrix was created as four lectins×six sugars×five replicates (Table 12). […] The Wilk's lamda (A) value for the training set was 0.000. […] The 95% confidence ellipses show clear spatial separation, and no overlap between the ellipses is visible. Unlike the weak binding interactions studied in before using non-specific binding sugars, the strong binding sugars show very good class separation.

SBA = target: T3, SBA (Glycine max, UniProt P05046); assay: as above; type: binding; parameters: unit: nm; details: replicates
T3 construct: purchased Sigma-Aldrich
Excerpt: as §3, §1, §4, §5

Con A = target: T4, Con A (Canavalia ensiformis, UniProt P02866); assay: as above; type: binding; parameters: unit: nm; details: replicates
T4 construct: purchased Sigma-Aldrich Type IV (catalogue number not given)
Excerpt: as §3
as §1, with “shaking. […]” for “shaking.”

[9] = target: CVN-Q, Cyanovirin-N Q^50C (Q50C) mutant (Nostoc ellipsosporum, UniProt P81180, Q50C); details: cited from earlier work
[10] = target: CVN (Cyanovirin-N mutants); details: cited from earlier work
[11] = target: CVN-M, Cyanovirin-N Mut^DB (CV-N^MutDB) mutant (Nostoc ellipsosporum, UniProt P81180); details: reported association constants, cited from earlier work
Con A, Concanavalin A = Con A, Concanavalin A (Canavalia ensiformis, UniProt P02866); details: reported solution association constants, cited from earlier work
[12] = target: RCA (Ricinus Communis Agglutinin I) (Ricinus communis, UniProt P06750); details: free glycan; cited from earlier work
PNA [13] = target: T2, PNA; details: free glycan; cited from earlier work
SBA (Soybean Agglutinin) = SBA (Soybean Agglutinin) (Glycine max, UniProt P05046); details: free glycan; cited from earlier work
[14] = target: DBA (Dolichos Biflorus Agglutinin) (Vigna unguiculata subsp. cylindrica, UniProt P05045); details: free glycan; cited from earlier work
[15] = unknown protein u3 (predicted class Con A)
[16] = unknown protein u4 (predicted class Con A)
[17] = unknown protein u1 (predicted class SBA)
[18] = unknown protein u2 (predicted class SBA)
[19] = unknown protein u6 (predicted class SBA)
[20] = unknown protein u7 (predicted class SBA)

In the case of CC(=O)N[C@H]1C(O)O[C@H](CO)[C@H](O)[C@@H]1O (stereo partly drawn) [GalNAc, N-acetylgalactosamine], the Ka [1] is given as 187000 M⁻¹, the Ka (PNA, Peanut Agglutinin) is given as 2430 M⁻¹ and the Ka [2] is given as ~10^3 M^−1. For the same compound, the Ka [3] was 48400 M⁻¹.
With O=C(O)c1cc(N=C=S)ccc1-c1c2ccc(=O)cc-2oc2cc(O)ccc12 [FITC, fluorescein isothiocyanate] the “fluorescence intensity after UV irradiation” value [4] was “about 50%”.
With Lactose the “Unknown SPR shift, weak binders” value [5] was 2.5, the “Unknown SPR shift, weak binders” value [6, 15] was 5.5 and the “Unknown SPR shift, weak binders” value [6, 16] was 5.7. For the same compound, the “Unknown SPR shift, weak binders” value [7, 17] was 1.6, the “Unknown SPR shift, weak binders” value [7, 18] was 1.1 and the “Unknown SPR shift, weak binders” value [7, 19] was 1.6. The “Unknown SPR shift, weak binders” value [7, 20] was 1.1, the “SPR shift, training matrix” value (PNA [8]) was 3.7 and 2 and 2.4 and the “SPR shift, training matrix” value (SBA) was 1.5 and 3.7 and 1.1. The “SPR shift, training matrix” value (Con A) was 6.2 and 5.1 and 7.9.
For Arabinose, the “Unknown SPR shift, weak binders” value [5] was 1.9, the “Unknown SPR shift, weak binders” value [6, 15] was 1.1 and the “Unknown SPR shift, weak binders” value [6, 16] was 1. The “Unknown SPR shift, weak binders” value [7, 17] was 4.5, the “Unknown SPR shift, weak binders” value [7, 18] was 5 and the “Unknown SPR shift, weak binders” value [7, 19] was 4.5. The “Unknown SPR shift, weak binders” value [7, 20] was 4.5, the “SPR shift, training matrix” value (PNA [8]) was 2.1 and 1.8 and 1.6 and the “SPR shift, training matrix” value (SBA) was 5.1 and 5.9 and 4.5. The “SPR shift, training matrix” value (Con A) was 1.9 and 0.8 and 1.1.
For OC[C@H]1O[C@H](O[C@@H]2[C@@H](O[C@@H]3C(O)O[C@H](CO)[C@@H](O)[C@@H]3O)O[C@H](CO)[C@@H](O)[C@@H]2O)[C@@H](O)[C@@H](O)[C@@H]1O (stereo partly drawn) [2α,2α-Man3, α-1,2-α-1,2-mannotriose], the Ka ([9]; Domain A) is listed as 2.94 × 10^5 (Domain A); M^−1, the Ka ([9]; Domain B) is listed as 2.33 × 10^4 (Domain B) M^−1 and the Ka [10] is listed as 10^5-10^6 M^−1. For the same compound, the Ka [11] was 294000 M⁻¹, the Ka ([11]; listed as 2α, 2α-Man3) was 294000 M⁻¹ and the Ka (Con A, Concanavalin A) was 379000 M⁻¹. The Ka (Con A, Concanavalin A; listed as 2α, 2α-Man3) was 379000 M⁻¹ and the Ka (Con A, Concanavalin A; listed as Man3) was 10^5-10^6 M^−1.
For OC[C@H]1OC(O)[C@H](O)[C@@H](O)[C@H]1O (stereo partly drawn) [Gal, D-(+)-galactose], the Ka (PNA, Peanut Agglutinin) is given as ~10^3 M^−1 and the Ka [3] is given as ~10^3 M^−1.
For CC(=O)N[C@H]1C(O)O[C@H](CO)[C@H](O)[C@@H]1O (stereo partly drawn) [GalNAc], the “Association constant Ka with RCA” value [12] is listed as 48400 M⁻¹, the “Association constant Ka with PNA” value (PNA [13]) is listed as 2430 M⁻¹ and the “Association constant Ka with SBA” value (SBA (Soybean Agglutinin)) is listed as 1.51e+06 M⁻¹. The “Association constant Ka with DBA” value [14] was 4200 M⁻¹.
